“And” between values parts separate entries of the source, which are not always exact repeats. Equal entries are not always repeated. Structures can show the parent of a compound that is named as a salt. Where two headings read alike, the source gives them in different places.
Legend:
[1] = system: HBV pgRNA/precore RNA in HepG2.2.15 cells; type: cell-based, Hepatitis B virus
Procedure: Fig. 1 Effect of FDA-approved compounds on HBV replication. a Schematic depiction of the primary screening analysis. HepG2.2.15 cells, which were stably transfected with HBV replicons, were treated with 978 FDA-approved drugs (1 μM) for 3 days. Entecavir (ETV) (1 μM) served as positive control. […] Quantitative RT-PCR was performed after 6 days of incubation. d Effect of the 19 candidates on intracellular HBV capsid assembly. Huh-7 cells were transfected with pCDNA3-Core and exposed after 12 h to the 19 candidates (1 μM) for 36 h. The cells were lysed and assembled HBV core particles were isolated by sucrose step gradient ultracentrifugation, resolved on 1% agarose gels, and subjected to immunoblot analysis with anti-HBV core antibody.
Quantitative RT-PCR with primers that detect three HBV regions (R1, R2, and R3, Supplementary Table 1) was used to measure HBV transcription. This RT-PCR detects pgRNA and precore RNA (3.5 kB), two HBV surface-encoding RNAs (2.5 kB and 2.1 kB), and HBx-encoding RNA (0.7 kB)[55]. PCR conditions were 95 °C for 10 min initially, then 50 cycles of 95 °C for 30 s, 60 °C for 60 s and 72 °C for 30 s, and finally 1 cycle of 95 °C for 60 s, 55 °C for 30 s and 95 °C for 30 s.
a Schematic depiction of the R1, R2, and R3 regions of the HBV genome that were targeted by
quantitative RT-PCR to quantitate the transcription of pgRNA, two HBV surface RNAs, and HBx RNA.
pGL3/HBV pgRNA promoter or pGL3/HBV sRNA promoter. The data shown in (b – d) represent two

[2] = system: HBV (ayw subtype, genotype D) replicon in HepG2.2.15 cells; assay: microbe, parasite or virus in culture; type: cell-based, Hepatitis B virus; details: for inhibition at 1 µM: Hepatitis B virus
[3] = ref https://www.drugbank.ca/; cited from earlier work
[4] = HepG2.2.15, 72 h, 1 μM, 3 days, ETV =100%, read-out: % of inhibition (ETV =100%), initial screening (3days)
[5] = HepG2.2.15, 144 h, 6 days, ETV =100%, read-out: % of inhibition (ETV =100%), confirmation (6days)
[6] = HepG2.2.15, 72 h, read-out: % of inhibition (ETV =100%), initial screening (3days)
[7] = HepG2.2.15, 144 h, read-out: % of inhibition (ETV =100%), confirmation (6days)

Compound	Relative HBV pgRNA/precore RNA level (Folds), AVERAGE ([1]; Fig. 1c, 6 days)	inhibition at 1 µM [2, 4]	inhibition at 1 µM [2, 5]	pKa value (acidic) [3]	pKa value (basic) [3]	Relative HBV pgRNA/precore RNA level (Folds), AVERAGE [1]	further results
COc1cc(C)c(/C=C/C(C)=C/C=C/C(C)=C/C(=O)O)c(C)c1C [Acitretin]	0.9923 Folds	110%	1.8%	5.01	-4.8		
Cc1c(N(C)C)c(=O)n(-c2ccccc2)n1C [Amidopyrine]	1.046 Folds				3.47		Relative HBV pgRNA/precore RNA level (Folds), individual samples ([1]; Fig. 1c, 6 days, Sample1-3): 1.129 Folds and 0.9386 Folds and 1.071 Folds; % of inhibition (ETV =100%), initial screening (3days) ([2]; 1 μM, 3 days, ETV =100%): 111.6%; % of inhibition (ETV =100%), confirmation (6days) ([2]; 6 days, ETV =100%): 7.1%; Relative secreted HBV DNA level (Folds), AVERAGE ([2]; Fig. 1b, 6 days): 0.9368 Folds; Relative secreted HBV DNA level (Folds), individual samples ([2]; Fig. 1b, 6 days, Sample1-3): 0.9368 Folds and 0.9352 Folds and 0.9383 Folds
NCCc1ccc(O)c(O)c1 [Dopamine hydrochloride]				10.01	9.27	1.103 Folds	inhibition at 1 µM [2, 6]: 162%; inhibition at 1 µM [2, 7]: 67.9%
Clc1ccc(COC(Cn2ccnc2)c2ccc(Cl)cc2Cl)cc1 (stereo not shown) [Econazole nitrate]					6.77	0.0453 Folds	inhibition at 1 µM [2, 6]: 147%; inhibition at 1 µM [2, 7]: 27.5%
O=c1[nH]c(=O)n(C2CCCO2)cc1F (stereo not shown) [Ftorafur]	0.977 Folds	131%	64.7%	8.08	-4.3		
Clc1ccc(C(Cn2ccnc2)OCc2c(Cl)cccc2Cl)c(Cl)c1 (stereo not shown) [Isoconazole nitrate]	1.034 Folds	148%	41.4%		6.77		
Clc1ccc(COC(Cn2ccnc2)c2ccc(Cl)cc2Cl)c(Cl)c1 (stereo not shown) [Miconazole]					6.77	0.964 Folds	inhibition at 1 µM [2, 6]: 132%; inhibition at 1 µM [2, 7]: -2.8%
OC(CNCC(O)C1CCc2cc(F)ccc2O1)C1CCc2cc(F)ccc2O1 (stereo not shown) [Nebivolol]	0.9531 Folds	103%	78.4%	13.52	8.9		
O=C1NC(=O)C(c2ccccc2)(c2ccccc2)N1 [Phenytoin sodium]	0.7935 Folds	124%	-2.4%	9.47			
OC(CCN1CCCC1)(c1ccccc1)C1CCCCC1 (stereo not shown) [Procyclidine HCl]	1.056 Folds	112%	70.4%		9.45		
CCCN(CCc1cccs1)[C@H]1CCc2c(O)cccc2C1 [Rotigotine]	1.049 Folds	104%	65.9%	10.03	10.97		
O=N[O-].[Na+] [Sodium nitrite]						0.04652 Folds	Relative HBV pgRNA/precore RNA level (Folds), individual samples [1]: 0.04803 Folds and 0.041 Folds and 0.05054 Folds; % of inhibition (ETV =100%), confirmation (6days) [2]: 83.1%; Relative secreted HBV DNA level (Folds), AVERAGE [2]: 0.2643 Folds; Relative secreted HBV DNA level (Folds), individual samples [2]: 0.2643 Folds and 0.2628 Folds and 0.2659 Folds; % of inhibition (ETV =100%), initial screening (3days) ([2]; 1 µM): 152.7%
CC(C)NCC(O)c1ccc(NS(C)(=O)=O)cc1 (stereo not shown) [Sotalol]	1.022 Folds	128%	69.7%	10.07	9.43		
CCOCC(O)COc1ccc(NC(=O)CC[S+](C)C)cc1 (stereo not shown) [Suplatast tosylate]	1.034 Folds	125%	76.2%	12.7			
CN1C(C(=O)Nc2ccccn2)=C(O)c2sccc2S1(=O)=O [Tenoxicam]				2.21	4.26	0.04619 Folds	inhibition at 1 µM [2, 6]: 110%; inhibition at 1 µM [2, 7]: 79.4%
CC(C)(C)c1ccc(C(O)CCCN2CCC(C(O)(c3ccccc3)c3ccccc3)CC2)cc1 (stereo not shown) [Terfenadine]				13.2	9.02	0.05435 Folds	inhibition at 1 µM [2, 6]: 101%; inhibition at 1 µM [2, 7]: 83.6%
C[N+]1(C)[C@@H]2C[C@@H](OC(=O)C(O)(c3cccs3)c3cccs3)C[C@H]1[C@@H]1O[C@@H]12 [Tiotropium Bromide hydrate]	1.071 Folds	117%	4.9%	10.35	-4.3		
L-Adrenaline	0.9192 Folds						Relative HBV pgRNA/precore RNA level (Folds), individual samples ([1]; Fig. 1c, 6 days, Sample1-3): 1.032 Folds and 0.7969 Folds and 0.9286 Folds; % of inhibition (ETV =100%), initial screening (3days) ([2]; 1 μM, 3 days, ETV =100%): 152.6%; % of inhibition (ETV =100%), confirmation (6days) ([2]; 6 days, ETV =100%): 1.5%; Relative secreted HBV DNA level (Folds), AVERAGE ([2]; Fig. 1b, 6 days): 0.9865 Folds; Relative secreted HBV DNA level (Folds), individual samples ([2]; Fig. 1b, 6 days, Sample1-3): 0.9865 Folds and 0.985 Folds and 0.9881 Folds

— publication PMC6522524 (Nature Communications, 2019)
